Measurements taken from patent publication US20220047552A1, “RAF-1 KINASE INHIBITOR COMPOUNDS FOR SKELETAL MUSCLE MODULATION, METHODS AND USES THEREOF” (SOCIETE DES PRODUITS NESTLE S.A., priority 2018, published 2022).

Columns and labels:
[1] = system: human primary muscle stem cells; assay: Assay for muscle stem cell commitment (Pax7/MyoD immunofluorescence high content screening); format: cell-based; conditions: human primary myoblasts, 96 hours
Source text: The inventors developed a high content screening to test in vitro compounds on human primary adult muscle cells. Human Skeletal Muscle Myoblasts (HSMM) were purchased from Lonza (https://bioscience.lonza.com). These cells were isolated from the upper arm or leg muscle tissue of normal donors and used after the second passage. Several donors have been tested to ensure cell viability and purity before selecting the final donor which was a person. The primary screening assay was based on the high content detection of two important myogenic regulatory factors (Pax7 and MyoD) by immunofluorescence. Pax7 and MyoD are the major hallmarks of muscle stem cell stemness and commitment and can be used to monitor muscle stem cell progeny. In particular, Pax7 marks early amplification while MyoD is a later marker for myogenic commitment, and combinations of these markers define the different states of proliferation, differentiation and self-renewal. […] Human primary myoblasts were seeded in 384 well plates at a density of 1'000 cells per well in skeletal muscle growth medium (SKM-M, AMSbio). For treatment, compounds were directly added to the myoblast cultures 16 hours after initial plating. All cultures were then grown for 96 hours. […] Custom module analysis based on Multi-Wavelength Cell Scoring of the MetaXpress software was used for quantification.

[2] = system: human primary muscle cells; assay: Assay for myogenesis (troponin-T myotube detection); format: cell-based; conditions: human primary myoblasts, differentiation medium, 96 hours, dose dependent response
Source text: In order to confirm the results from the primary assay described above, a secondary assay for myogenesis in vitro on all the hits obtained in this primary screening assay. This secondary assay focused on the later stage of myogenesis when the muscle cells fuse together and form multinucleated myotubes. This assay was based on the detection of the mature troponin-T protein that is expressed in myotubes. In particular, two measurements were made: Fusion factor, which is the % of nuclei that are inside the multinucleated myotubes compare to total nuclei and give a readout for muscle cell differentiation. Myotube area, which is measured based on the Troponin T staining and give a readout on the myotube size and muscle fiber growth. Human primary myoblasts were seeded in 384 well plates at a density of 3'000 cells per well in skeletal muscle growth medium (SKM-M, AMSbio). After one day, the differentiation is induced by a medium change. For treatment, compounds were directly added to the myoblast cultures for 96 hours. Myotubes were stained for TroponinT expression using antibodies directed against TroponinT and counterstained with Hoechst 33342 to visualize cell nuclei. Image acquisition was performed using the ImageXpress (Molecular Devices) platform. Custom module analysis based on Multi-Wavelength Cell Scoring of the MetaXpress software was used for quantification.

Structure (SMILES): O=C1Nc2ccc(I)cc2C1=Cc1cc(Br)c(O)c(Br)c1 [GW5074, 3-(3,5-Dibromo-4-hydroxy-benzylidene)-5-iodo-1,3-dihydro-indol-2-one]
- proportion of MyoD+ cells as percent of total cell number (myogenic commitment) ([1]; FIG. 1A, dose-dependent response, MyoD+ = Pax7-/MyoD+): increase in the proportion of MyoD+ cells
- number of Pax7+ cells (expansion of muscle stem cells) ([1]; FIG. 1B, dose dependent response, Pax7+ regardless of MyoD expression): increase in Pax7+ cells
- myogenic differentiation (Fusion Factor, percent nuclei within troponinT-positive myotubes) ([2]; FIG. 2A): enhanced myogenic differentiation
- myofiber growth (area covered by troponinT-positive myotubes) ([2]; FIG. 2B): enhanced
